Experimental findings from BindingDB's records for doi:10.1016/S0960-894X(00)80068-2 (1994) are described below.

Molecules are shown by their SMILES.

The target of assay [1] is Sigma intracellular receptor 2 (Cavia porcellus). The assay is described as follows: Binding affinity for Sigma opioid receptor type 2 in guinea pig brain homogenate with 4 nM [3H]-(+)-DTG.
Assay [2] in a line: Binding affinity for Sigma opioid receptor type 1 in guinea pig brain homogenate with 0.5 nM [3H](+)-PENT.

Broadly, the Ki is the dissociation constant of the complex between target and ligand, obtained from inhibition or displacement. A high value points to weaker binding. With `O=C1NC(c2ccccc2)(c2ccccc2)C(=O)N1CCN1CCC(c2ccccc2)CC1` [5,5-Diphenyl-3-[2-(4-phenyl-piperidin-1-yl)-ethyl]-imidazolidine-2,4-dione], the Ki in assay [1] amounted to 43 nM; in assay [2], 17 nM.

On to `O=C1NC(c2ccccc2)(c2ccccc2)C(=O)N1CCCN1CCC(c2ccccc2)CC1` [5,5-Diphenyl-3-[3-(4-phenyl-piperidin-1-yl)-propyl]-imidazolidine-2,4-dione], for which the Ki in assay [1] was 25 nM; in assay [2], 22 nM.

With `O=C1NC(c2ccccc2)(c2ccccc2)C(=O)N1CCCCN1CCN(c2ccccc2)CC1` [5,5-Diphenyl-3-[4-(4-phenyl-piperazin-1-yl)-butyl]-imidazolidine-2,4-dione], the Ki in assay [1] stood at 49 nM; in assay [2], 328 nM.

On to `O=C1NC(c2ccccc2)(c2ccccc2)C(=O)N1CCCCCN1CCN(c2ccccc2)CC1` [5,5-Diphenyl-3-[5-(4-phenyl-piperazin-1-yl)-pentyl]-imidazolidine-2,4-dione], for which the Ki in assay [1] and in assay [2] was 19 nM each time.
